# Measurements from patent US12428406B2 (PMV Pharmaceuticals, Inc., priority 2019, dated 2025).
# Biological target: T1, p53 Y220C (Homo sapiens, UniProt P04637, Y220C)
# T1 construct: The recombinant protein was a truncation mutant containing only amino acids 94-312 of p53; made in house; host or cells: E. coli
# Assay: In vitro DNA binding activity assay (HTRF / TR-FRET): stabilization of p53 Y220C and increase of its DNA binding activity
# Assay type: biochemical
# Conditions: recombinant His-tagged p53 Y220C DNA binding domain (aa 94-312), biotin-labeled consensus DNA, incubated at 27° C. or 29° C. for 60 min
# In short: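 His-tagged p53 Y220C, E. coli-expressed, binding biotin-labeled consensus DNA measured by HTRF (anti-His-APC, streptavidin-europium). Compounds from 4.5 mM DMSO stocks, 3-fold serial dilutions; incubations at room temperature 15 min, then 20 min. SC150 = concentration raising DNA binding by 50%.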
# T1 sequence (P04637 94-312, change not shown): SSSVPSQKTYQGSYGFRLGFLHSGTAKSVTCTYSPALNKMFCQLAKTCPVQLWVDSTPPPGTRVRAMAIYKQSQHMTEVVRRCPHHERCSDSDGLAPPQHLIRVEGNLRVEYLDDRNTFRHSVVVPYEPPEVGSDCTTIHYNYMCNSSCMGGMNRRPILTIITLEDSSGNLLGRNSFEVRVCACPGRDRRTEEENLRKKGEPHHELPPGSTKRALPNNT
row,Compound,SC150 (concentration of the compound required to increase the DNA binding activity by 50%)
1,"CN1CCC(Nc2cccc3c2cc(C#CCNc2ccc(CN4CCOCC4)cc2)n3CC(F)(F)F)CC1 [Compound 508A, N-(1-methylpiperidin-4-yl)-2-[3-({4-[(morpholin-4-yl)methyl]phenyl}amino)prop-1-yn-1-yl]-1-(2,2,2-trifluoroethyl)-1H-indol-4-amine]",+ (+ = 0 μM ≤ SC150 < 0.05 μM)
2,"CNC(=O)c1ccc(NCC#Cc2cc3c(N[C@H]4CC[C@H](N(C)C)CC4)cccc3n2CC(F)(F)F)c(OCC#N)c1 [Compound 113A, 3-(cyanomethoxy)-N-methyl-4-{[3-(4-{[(1R,4R)-4-(dimethyl-amino)cyclohexyl]amino}-1-(2,2,2-trifluoro-ethyl)-1H-indol-2-yl)prop-2-yn-1-yl]amino}benzamide]",+ (+ = 0 μM ≤ SC150 < 0.05 μM)
3,"COCCN(C)[C@H]1CC[C@H](Nc2cccc3c2cc(C#CCNc2ccc(S(C)(=O)=O)cc2OCF)n3CC(F)(F)F)CC1 [Compound 155A, (1R,4R)—N^1-(2-(3-((2-(fluoromethoxy)-4-(methylsulfonyl)phenyl)amino)prop-1-yn-1-yl)-1-(2,2,2-trifluoroethyl)-1H-indol-4-yl)-N^4-(2-methoxyethyl)-N^4-methylcyclohexane-1,4-diamine]",+ (+ = 0 μM ≤ SC150 < 0.05 μM)
4,"CN1CCC(Nc2cccc3c2cc(C#CCNc2cccc(S(C)(=O)=O)c2)n3CC(F)(F)F)CC1 [Compound 507A, 2-{3-[(3-methanesulfonylphenyl)amino]prop-1-yn-1-yl}-N-(1-methylpiperidin-4-yl)-1-(2,2,2-trifluoroethyl)-1H-indol-4-amine]",++ (++ = 0.05 μM ≤ SC150 < 0.1 μM)
5,"COc1cc(S(=O)(=O)Nc2cc(C)on2)ccc1NCC#Cc1cc2c(NC3CCN(C)CC3)cccc2n1CC(F)(F)F [Compound 471A, 3-methoxy-N-(5-methyl-1,2-oxazol-3-yl)-4-[(3-{4-[(1-methylpiperidin-4-yl)amino]-1-(2,2,2-trifluoroethyl)-1H-indol-2-yl}prop-2-yn-1-yl)amino]benzene-1-sulfonamide]",+ (+ = 0 μM ≤ SC150 < 0.05 μM)
6,"CNC(=O)c1ccc(NCC#Cc2cc3c(N[C@H]4CC[C@H](N5CCOCC5)CC4)cccc3n2CC#N)c(OC)c1 [Compound 177A, 4-({3-[1-(cyanomethyl)-4-{[(1R,4R)-4-(morpholin-4-yl)cyclohexyl]amino}-1H-indol-2-yl]prop-2-yn-1-yl}amino)-3-methoxy-N-methyl-benzamide]",+ (+ = 0 μM ≤ SC150 < 0.05 μM)
7,"COCCn1cc(-c2ccc(NCC#Cc3cc4c(NC5CCN(C)CC5)cccc4n3CC(F)(F)F)c(OC)c2)cn1 [Compound 510A, 2-[3-({2-methoxy-4-[1-(2-methoxyethyl)-1H-pyrazol-4-yl]phenyl}amino)prop-1-yn-1-yl]-N-(1-methylpiperidin-4-yl)-1-(2,2,2-trifluoroethyl)-1H-indol-4-amine]",+ (+ = 0 μM ≤ SC150 < 0.05 μM)
8,"COc1cc(C(N)=O)ccc1NCC#Cc1cc2c(NC(=O)NC3CCN(C)CC3)cccc2n1CC(F)(F)F [Compound 7A, 3-methoxy-4-{[3-(4-{[(1-methylpiperidin-4-yl)carbamoyl]amino}-1-(2,2,2-trifluoroethyl)-1H-indol-2-yl)prop-2-yn-1-yl]amino}benzamide]",++++ (++++ = 0.2 μM ≤ SC150 < 1 μM)
9,"COc1cc(S(=O)(=O)N2CCN(C(C)=O)CC2)ccc1NCC#Cc1cc2c(NC3CCN(CC(O)CO)CC3)cccc2n1CC(F)(F)F (stereo not shown) [Compound 577A, 1-[4-(4-{[3-(4-{[1-(2,3-dihydroxypropyl)piperidin-4-yl]amino}-1-(2,2,2-trifluoroethyl)-1H-indol-2-yl)prop-2-yn-1-yl]amino}-3-methoxybenzenesulfonyl)piperazin-1-yl]ethan-1-one]",+ (+ = 0 μM ≤ SC150 < 0.05 μM)
10,"CCC(=O)OCC(CN1CCC(Nc2cccc3c2cc(C#CCNc2ccc(S(C)(=O)=O)cc2OC)n3CC(F)(F)F)CC1)OC(=O)CC (stereo not shown) [Compound 586A, 1-{4-[(2-{3-[(4-methanesulfonyl-2-methoxyphenyl)amino]prop-1-yn-1-yl}-1-(2,2,2-trifluoroethyl)-1H-indol-4-yl)amino]piperidin-1-yl}-3-(propanoyloxy)propan-2-yl propanoate]",+ (+ = 0 μM ≤ SC150 < 0.05 μM)
11,"CNC(=O)c1ccc(NCC#Cc2cc3c(N[C@H]4CC[C@@H](N5CC6(COC6)C5)CC4)cccc3n2CC(F)(F)F)c(OCCOC)c1 [Compound 237A, 3-(2-methoxyethoxy)-N-methyl-4-{[3-(4-{[(1S,4S)-4-{2-oxa-6-azaspiro[3.3]heptan-6-yl}cyclohexyl]amino}-1-(2,2,2-trifluoroethyl)-1H-indol-2-yl)prop-2-yn-1-yl]amino} benzamide]",+ (+ = 0 μM ≤ SC150 < 0.05 μM)

# The next lines start with the values.
row,SC150 (concentration of the compound required to increase the DNA binding activity by 50%),Compound
1,+ (+ = 0 μM ≤ SC150 < 0.05 μM),"COc1cc(S(N)(=O)=O)ccc1NCC#Cc1cc2c(N[C@H]3CC[C@H](N4CCC(OC)C4)CC3)cccc2n1CC(F)(F)F (stereo partly drawn) [Compound 427A, 3-methoxy-4-{[3-(4-{[(1R,4R)-4-(3-methoxypyrrolidin-1-yl)cyclohexyl]amino}-1-(2,2,2-trifluoroethyl)-1H-indol-2-yl)prop-2-yn-1-yl]amino}benzene-1-sulfonamide]"
2,+ (+ = 0 μM ≤ SC150 < 0.05 μM),"COc1cc(S(N)(=O)=O)ccc1NCC#Cc1cc2c(N[C@H]3CC[C@H](N4CCC(C(F)(F)F)CC4)CC3)cccc2n1CC(F)(F)F [Compound 440A, 3-methoxy-4-{[3-(4-{[(1R,4R)-4-[4-(trifluoromethyl)piperidin-1-yl]cyclohexyl]amino}-1-(2,2,2-trifluoroethyl)-1H-indol-2-yl)prop-2-yn-1-yl]amino}benzene-1-sulfonamide]"
3,+ (+ = 0 μM ≤ SC150 < 0.05 μM),"COc1cc(S(=O)(=O)N2CCN(C(C)=O)CC2)ccc1NCC#Cc1cc2c(NC3CCOCC3)cccc2n1CC(F)(F)F [Compound 1001A, 1-(4-{3-methoxy-4-[(3-{4-[(oxan-4-yl)amino]-1-(2,2,2-trifluoroethyl)-1H-indol-2-yl}prop-2-yn-1-yl)amino]benzenesulfonyl}piperazin-1-yl)ethan-1-one]"
4,+ (+ = 0 μM ≤ SC150 < 0.05 μM),"COc1cc(S(N)(=O)=O)ccc1NCC#Cc1cc2c(N[C@H]3CC[C@H](N4CCC5(CCOC5)CC4)CC3)cccc2n1CC(F)(F)F [Compound 411A, 3-methoxy-4-{[3-(4-{[(1R,4R)-4-{2-oxa-8-azaspiro[4.5]decan-8-yl}cyclohexyl]amino}-1-(2,2,2-trifluoroethyl)-1H-indol-2-yl)prop-2-yn-1-yl]amino}benzene-1-sulfonamide]"
5,+ (+ = 0 μM ≤ SC150 < 0.05 μM),COc1cc(S(N)(=O)=O)ccc1NCC#Cc1cc2c(N[C@@H]3CCNC[C@@H]3F)cccc2n1CC(F)(F)F [Compound 845A]
6,+ (+ = 0 μM ≤ SC150 < 0.05 μM),"COc1cc(S(C)(=O)=O)ccc1NCC#Cc1cc2c(NC3CCN(CC(O)COCC(F)(F)F)CC3)cccc2n1CC(F)(F)F (stereo not shown) [Compound 673A, 1-{4-[(2-{3-[(4-methanesulfonyl-2-methoxyphenyl)amino]prop-1-yn-1-yl}-1-(2,2,2-trifluoroethyl)-1H-indol-4-yl)amino]piperidin-1-yl}-3-(2,2,2-trifluoroethoxy)propan-2-ol]"
7,+ (+ = 0 μM ≤ SC150 < 0.05 μM),"COc1cc(S(N)(=O)=O)ccc1NCC#Cc1cc2c(NC3CCN(C[C@@H](CO)OC)CC3)cccc2n1CC(F)(F)F [Compound 632A, 4-({3-[4-({l-[(2S)-3-hydroxy-2-methoxypropyl]piperidin-4-yl}amino)-1-(2,2,2-trifluoroethyl)-1H-indol-2-yl]prop-2-yn-1-yl}amino)-3-methoxybenzene-1-sulfonamide]"
8,+ (+ = 0 μM ≤ SC150 < 0.05 μM),"CN(C)[C@H]1CC[C@H](Nc2cccc3c2cc(C#CCNc2ccc(S(C)(=O)=O)cc2O)n3CC(F)(F)F)CC1 [Compound 80A, 5-methanesulfonyl-2-{[3-(4-{[(1S,4S)-4-(dimethylamino)cyclohexyl]amino}-1-(2,2,2-trifluoroethyl)-1H-indol-2-yl)prop-2-yn-1-yl]amino}phenol]"
9,+ (+ = 0 μM ≤ SC150 < 0.05 μM),"COc1cc(S(N)(=O)=O)ccc1NCC#Cc1cc2c(N[C@H]3CCN[C@@H](C)C3)cccc2n1CC(F)(F)F [Compound 464A, 3-methoxy-4-{[3-(4-{[(2S,4S)-2-methylpiperidin-4-yl]amino}-1-(2,2,2-trifluoroethyl)-1H-indol-2-yl)prop-2-yn-1-yl]amino} benzene-1-sulfonamide]"
10,+ (+ = 0 μM ≤ SC150 < 0.05 μM),"CNS(=O)(=O)c1ccc(NCC#Cc2cc3c(N[C@H]4CC[C@H](N(C)C)CC4)cccc3n2CC(F)(F)F)c(OC)c1 [Compound 71A, 3-methoxy-N-methyl-4-{[3-(4-{[(1R,4R)-4-(dimethylamino)cyclohexyl]amino}-1-(2,2,2-trifluoroethyl)-1H-indol-2-yl)prop-2-yn-1-yl]amino}benzene-1-sulfonamide]"
11,+ (+ = 0 μM ≤ SC150 < 0.05 μM),"CNS(=O)(=O)c1ccc(NCC#Cc2cc3c(NC4CCN(CCOC)CC4)cccc3n2CC(F)(F)F)c(OC)c1 [Compound 617A, 3-methoxy-4-{[3-(4-{[1-(2-methoxyethyl)piperidin-4-yl]amino}-1-(2,2,2-trifluoroethyl)-1H-indol-2-yl)prop-2-yn-1-yl]amino}-N-methylbenzene-1-sulfonamide]"
